For data set [1], the target named is T1, CB1 receptor (Mus musculus, UniProt P47746). Kind of data set: Object recognition task, THC-induced amnesia. In kind it is in vivo, mice. More on the design: tissue Charles River Laboratories (France) (animals); host or cells: living mice, whole animal. Here is the method:
Object recognition was measured in a two arms L-maze (size of each arm 30 cm length×4.5 cm width) in dim light condition (50-60 lux). Animals were individually tested for three consecutive days for 9 min-session each day, corresponding to habituation, training and test sessions. On day 1 (habituation session), mice were let explore the L maze with no object. On the second day (training session), two identical objects were presented at the end of the each arm of the maze. Although no preferences for arm of object appeared (data not shown) object and arms were randomized for each mouse/condition. On the 3rd day (test session), one of the familiar objects was replaced with a novel object and the total time spent exploring each of the two objects (novel and familiar) was computed. The time spent in each arm and the time spent exploring an object (familiar or novel) were recorded. Object exploration was defined as the orientation of the nose to the object at a distance of less than 2 cm. During the test session, a discrimination index was calculated as the difference between the times spent exploring either the novel or familiar object divided by the total time exploring the two objects. […]
In this example the inventors further analyzed the ability of pregnenolone to inhibit the effects of CB1 activation. […]

The target in data set [2] is T1, CB1 receptor. In words: THC-induced increase in food intake in mice. Format: in vivo. Also on record: tissue Charles River Laboratories (France) (animals); host or cells: living mice, whole animal. To be noted: for effect on THC-induced increase in food intake (hyperphagia) in mice: 24 h-food deprived C57B1/6 mice, THC 1 mg/kg, compound 2 mg/kg sc. Here is the method: Food intake was evaluated by measuring consumption of food in the home cages of the animals. For each animal, 50-100 g of standard laboratory chow (U.A.R., France) was placed in the cleaned home cage. The remaining amount of food was weighted 1 h later and the amount of food consumed calculated.
(§1) Other pregnenolone derivatives (Table 4) for which the metabolism in downstream active steroids was reduced were tested for their ability to inhibit: 1. effects of the THC-induced cannabinoid tetrade (decrease in body temperature and in locomotor activity, (THC 10 mg/kg, compounds 6 mg/kg 15-30 min before THC) that is recognized as a sound method to evaluate the activation of the CB1 receptor; 2. THC-induced increase in food intake a typical effect of CB1 activation (THC between 0.5 and 1 mg/kg, compounds between 2 and 4 mg/kg 30 min before THC); 3. the increase in TNFalpha induced by LPS, another effects typical of CB1 […] (compounds 6 mg/kg 15 min before LPS). For each compound and each test independent groups of animals were used (at least n=6 per compound/per test).

Data set [3] has as its system TNF-α. Kind of data set: Increase in plasma TNF-alpha induced by LPS. Format: in vivo, mice. As to conditions: pregnenolone 6 mg/kg sc 30 min before LPS; measured 90 min after LPS. The protocol: Trunk blood was collected and centrifuged at 3000 rpm for 15 min at 4° C. Plasma was stored at −80° C. until measurement of TNFα was carried out. Plasma TNFα levels were assessed using an ELISA kit, following the manufacturer's instructions (Fisher Scientific, Catalog #E6473C).
In this example the inventors further analyzed the ability of pregnenolone to inhibit the effects of CB1 activation in the context of inflammation and fibrosis. […] TNF-alpha is one of the cellular responses to inflammatory stimuli more involved in promoting fibrosis.
as §1

The target in data set [4] is CB1 receptor (Rattus norvegicus, UniProt P20272). Kind of data set: THC inhibition of AMPAR-mediated EPSC, patch clamp in nucleus accumbens slices. Format: cell-based, rats. Also on record: from tissue; host or cells: acute coronal brain slices, nucleus accumbens. To be noted: slices pre-treated with Pregnenolone 100 nM.
Chain of CB1 receptor (Rattus norvegicus, UniProt P20272) (P20272 whole entry): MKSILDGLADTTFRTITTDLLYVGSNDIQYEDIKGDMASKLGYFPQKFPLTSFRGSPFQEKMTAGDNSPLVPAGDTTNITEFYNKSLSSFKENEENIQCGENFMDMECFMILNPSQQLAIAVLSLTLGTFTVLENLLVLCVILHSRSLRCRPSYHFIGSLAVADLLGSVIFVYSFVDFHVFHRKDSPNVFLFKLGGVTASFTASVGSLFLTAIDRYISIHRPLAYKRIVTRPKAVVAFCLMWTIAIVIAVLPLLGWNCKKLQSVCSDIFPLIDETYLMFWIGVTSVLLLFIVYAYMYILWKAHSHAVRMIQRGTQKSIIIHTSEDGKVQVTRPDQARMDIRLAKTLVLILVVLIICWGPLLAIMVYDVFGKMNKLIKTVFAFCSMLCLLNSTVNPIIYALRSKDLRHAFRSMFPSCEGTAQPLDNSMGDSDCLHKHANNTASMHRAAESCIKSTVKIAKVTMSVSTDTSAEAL
A short description of data set [5]: Elevated plus maze, anxiety-like behaviors. Format: in vivo, mice. As to conditions: sc, 30 min before test; pregnenolone 1, 6, 10 mg/kg; rimonabant 10 mg/kg. Here is the method: The elevated plus maze was made by a central platform (10×10 cm) from which departed 4 arms (45×10 cm) at a 90° angle from each other. Two opposite arms, named closed arms had peripheral wall 50 cm high. The two other arms, named open arms had no walls. The maze was suspended at 66 cm from the floor of the room and was brightly lighted (120 lux). The testing consisted in placing the animal in the central platform and the number of entry and the time spent in each compartment of the maze recorded for 5 min. The number of entry and time spent in the open arms are considered and index of anxiety-like behaviors, whilst the total number of entry are and index of locomotor activity.
One of the major side effects of orthosteric antagonists of the CB1 is the induction of behavioral side effect and in particular an axiodepressive state. […] This test has been chosen because an increase in anxiety was the principal undesirable side effect of this compound in humans.

Data set [6] deals with GABA-A receptors. In words: GABA-A receptors-mediated mIPSC in nucleus accumbens principal neurons. In kind it is cell-based, mouse. The protocol: GABA-A receptors-mediated currents: mIPSC were recorded in the presence of the AMPAR and NMDAR antagonists (DNQX 20 μM and AP-5 50 μM, respectably). mEPSC-mIPSC analysis: Typically, after breaking in, cells were left to equilibrate for 20 minutes and the subsequent 10 minutes recording of mEPSC-mIPSC was used to analysis. mEPSC-mIPSC were detected using a template generated from averaging several typical events (Clampfit 10, Molecular Devices). The template was slid along the data trace one point at a time. At each position, the template was optimally scaled and offset to fit the data. A lower-amplitude threshold of 7 pA and 10 pA were applied for mEPSC and mIPSC, respectably, equivalent to 2.5SD of baseline noise. For each cell, the kinetics of mEPSC-mIPSC was measured from the average event using Clampfit 10. To estimate decay times, a two exponentials curve was fitted between 5 and 95% of the decay phase of the current given by the following equation: y(t)=A1·e^(−t/τ1)+A2·e^(−t/τ2), where A is the amplitude, t is the time and τ is the decay time constant. The weighted tau was then calculated.
In order to evaluate the effect of pregnenolone on the function of post-synaptic GABA we recorded mIPSC and compared its amplitude and decay time between groups. We observed that mIPSC amplitude and decay time were similar between controls (amplitude: 17.9±0.8 pA; decay time: 11.1±0.3 ms) and slices pre-treated with pregnenolone (100 nM and 1 μM, respectively; amplitude: 17.3±0.4 pA, 15.9±0.4 pA; decay time: 10.2±0.4 ms, 10.8±0.5 ms).

The source of these data is US10150793B2, “Antagonists of CB1 receptor” (INSERM (Institut National de la Santé et de la Recherche …, priority 2011, dated 2018).

Molecules are shown by their SMILES.

T1 sequence (P47746 whole entry): as the sequence (P20272 whole entry) above, with E95D counted along it

`CC(=O)[C@H]1CC[C@H]2[C@@H]3CC=C4C[C@@H](O)CC[C@]4(C)[C@H]3CC[C@]12C` [Pregnenolone, 5-Pregnen-3β-ol-20-one]: in data set [1] (pregnenolone 6 mg/kg), the “effect on memory retention in the absence of THC” value is recorded as “did not induce any change in memory retention”. In addition, in data set [1] (pregnenolone 6 mg/kg immediately after training, THC 10 mg/kg), the “effect on amnesic effect of THC” value is given as “strongly blunted the amnesic effect”. Besides, the “effect on THC-induced increase in food intake (hyperphagia) in mice” value is listed as “decreased THC-induced hyperphagia” in data set [2] and “suppressed the increase in food intake” in data set [2] (listed as pregnenolone). Besides, the “dose inhibiting THC-induced increase in food-intake (first effective dose)” value in data set [2] (dose response in 24 h-food deprived mice, 0.5 mg/kg dose was ineffective) was 1 mg/kg. The “effect on increase in TNF-alpha induced by LPS” value in data set [3] is recorded as “halved the increase in TNF-alpha”. For the same compound, in data set [4], the “inhibition of EPSC amplitude by THC” value is 15.1±1.8 % of inhibition. Moreover, the “anxiety-like behavior (entries and time spent in open arms)” value in data set [5] was “induced no increase in anxiety”. The mIPSC amplitude in data set [6] (slices pre-treated with 100 nM) came out at 17.3±0.4 pA; in data set [6] (slices pre-treated with 1 μM), 15.9±0.4 pA. Further, the mIPSC decay time was 10.2 ± 0.4 ms in data set [6] (slices pre-treated with 100 nM) and 10.8 ± 0.5 ms in data set [6] (slices pre-treated with 1 μM).
